The values that follow come from patent US12071453B2, “Neuroactive steroids, compositions, and uses thereof” (Sage Therapeutics, Inc., priority 2013, dated 2024).

The target of one test is [35S]-TBPS binding in rat brain cortical membranes. Nature of the test: Steroid inhibition of [35S]-TBPS binding, rat brain cortical membranes. Particulars: 3 nM [35S]-TBPS, in the presence of 5 μM GABA, read-out: 35S-TBPS Radioligand Displacement (IC50). Here is the method: TBPS binding assays using rat brain cortical membranes in the presence of 5 μM GABA has been described (Gee et al, J. Pharmacol. Exp. Ther. 1987, 241, 346-353; Hawkinson et al, Mol. Pharmacol. 1994, 46, 977-985; Lewin, A. H et al., Mol. Pharmacol. 1989, 35, 189-194).
Briefly, cortices are rapidly removed following decapitation of carbon dioxide-anesthetized Sprague-Dawley rats (200-250 g). The cortices are homogenized in 10 volumes of ice-cold 0.32 M sucrose using a glass/teflon homogenizer and centrifuged at 1500×g for 10 min at 4° C. The resultant supernatants are centrifuged at 10,000×g for 20 min at 4° C. to obtain the P2 pellets. The P2 pellets are resuspended in 200 mM NaCl/50 mM Na—K phosphate pH 7.4 buffer and centrifuged at 10,000×g for 10 min at 4° C. This washing procedure is repeated twice and the pellets are resuspended in 10 volumes of buffer. Aliquots (100 μL) of the membrane suspensions are incubated with 3 nM [^35S]-TBPS and 5 μL aliquots of test drug dissolved in dimethyl sulfoxide (DMSO) (final 0.5%) in the presence of 5 μM GABA. The incubation is brought to a final volume of 1.0 mL with buffer. Nonspecific binding is determined in the presence of 2 μM unlabeled TBPS and ranged from 15 to 25%. Following a 90 min incubation at room temp, the assays are terminated by filtration through glass fiber filters (Schleicher and Schuell No. 32) using a cell harvester (Brandel) and rinsed three times with ice-cold buffer. Filter bound radioactivity is measured by liquid scintillation spectrometry. Non-linear curve fitting of the overall data for each drug averaged for each concentration is done using Prism (GraphPad). […] The concentration of test compound producing 50% inhibition (IC50) of specific binding and the maximal extent of inhibition (Imax) are determined for the individual experiments with the same model used for the overall data and then the mean±SEM.s of the individual experiments are calculated.
Various compounds are or can be screened to determine their potential as modulators of [^35S]-TBPS binding in vitro. These assays are or can be performed in accordance with the above discussed procedures.
(In general: In a radioligand displacement assay an active substance lowers the binding of a labelled ligand.)
In general, IC50 refers to the concentration that inhibits the measured activity by half. In the case of `COC[C@]12CC[C@@](C)(O)C[C@@H]1CC[C@H]1[C@@H]3CC[C@H](C(=O)Cn4cccn4)[C@@]3(C)CC[C@@H]12` [Compound 2], the IC50 was greater than 500 nM.
As for `COC[C@]12CC[C@@](C)(O)C[C@@H]1CC[C@H]1[C@@H]3CC[C@H](C(=O)CN4CCOCC4)[C@@]3(C)CC[C@@H]12` [Compound 4], the IC50 was greater than 500 nM.
`COC[C@]12CC[C@@](C)(O)C[C@@H]1CC[C@H]1[C@@H]3CC[C@H](C(=O)CN4CCN(C(C)=O)CC4)[C@@]3(C)CC[C@@H]12` [Compound 5]: the IC50 was greater than 500 nM.
As for `CC(=O)N1CCN(CC(=O)[C@H]2CC[C@H]3[C@@H]4CC[C@H]5C[C@](C)(O)CC[C@]5(CO)[C@H]4CC[C@]23C)CC1` [Compound 6], the IC50 was greater than 500 nM.
On the same count and under the same terms, the same measure for `C[C@@]1(O)CC[C@@]2(CO)[C@@H](CC[C@H]3[C@@H]4CC[C@H](C(=O)CN5CCN(S(C)(=O)=O)CC5)[C@@]4(C)CC[C@@H]32)C1` [Compound 7]: greater than 500 nM; for `C[C@@]1(O)CC[C@@]2(CO)[C@@H](CC[C@H]3[C@@H]4CC[C@H](C(=O)CN5CCOCC5)[C@@]4(C)CC[C@@H]32)C1` [Compound 9]: greater than 500 nM; for `C[C@@]1(O)CC[C@@]2(CO)[C@@H](CC[C@H]3[C@@H]4CC[C@H](C(=O)Cn5nccn5)[C@@]4(C)CC[C@@H]32)C1` [Compound 10]: greater than 500 nM.
For the compound `C[C@@]1(O)CC[C@@]2(CO)[C@@H](CC[C@H]3[C@@H]4CC[C@H](C(=O)Cn5cccn5)[C@@]4(C)CC[C@@H]32)C1` [Compound 11], the IC50 is greater than 500 nM.
In the case of `C[C@@]1(O)CC[C@@]2(CO)[C@@H](CC[C@H]3[C@@H]4CC[C@H](C(=O)Cn5ccnn5)[C@@]4(C)CC[C@@H]32)C1` [Compound 12], the concentration for half-maximal inhibition (IC50) was greater than 500 nM.
As for `COC[C@]12CC[C@@](C)(O)C[C@@H]1CC[C@H]1[C@@H]3CC[C@H](C(=O)Cn4nnc(C)n4)[C@@]3(C)CC[C@@H]12` [Compound 17], the IC50 was greater than 500 nM.
Take `COC[C@]12CC[C@@](C)(O)C[C@@H]1CC[C@H]1[C@@H]3CC[C@H](C(=O)Cn4cnc(C)c4)[C@@]3(C)CC[C@@H]12` [Compound 23]: the IC50 was 100 to 500 nM.
Regarding `COC[C@]12CC[C@@](C)(O)C[C@H]1CC[C@H]1[C@@H]3CC[C@H](C(=O)Cn4cc(C)cn4)[C@@]3(C)CC[C@@H]12` [Compound 28], the IC50 was in the range of 50 to 100 nM.
Take `COC[C@]12CC[C@@](C)(O)C[C@@H]1CC[C@H]1[C@@H]3CC[C@H](C(=O)Cn4nc5ccccc5n4)[C@@]3(C)CC[C@@H]12` [Compound 40]: the half-inhibitory concentration (IC50) fell in the range of 10 to 50 nM.
The same measure, in the same setting: to `COC[C@]12CC[C@@H](O)C[C@@H]1CC[C@H]1[C@@H]3CC[C@H](C(=O)Cn4nccn4)[C@@]3(C)CC[C@@H]12` [Compound 90] belongs 50 to 100 nM; to `COC[C@]12CC[C@@H](O)C[C@@H]1CC[C@H]1[C@@H]3CC[C@H](C(=O)Cn4ccnn4)[C@@]3(C)CC[C@@H]12` [Compound 91], 100 to 500 nM.
For the compound `CCOC(=O)c1ccn(CC(=O)[C@H]2CC[C@H]3[C@@H]4CC[C@H]5C[C@H](O)CC[C@]5(COC)[C@H]4CC[C@]23C)n1` [Compound 92], the IC50 fell in the range of 10 to 50 nM.
Consider `COC[C@]12CC[C@@H](O)C[C@@H]1CC[C@H]1[C@@H]3CC[C@H](C(=O)Cn4cc(C)cn4)[C@@]3(C)CC[C@@H]12` [Compound 93], for which the IC50 fell in the range of 100 to 500 nM.
Consider `COC[C@]12CC[C@@](C)(O)C[C@@H]1CC[C@H]1[C@@H]3CC[C@H](C(=O)Cn4nnc5c(F)c(F)ccc54)[C@@]3(C)CC[C@@H]12` [Compound 114], for which the IC50 lay in the range of 10 to 50 nM.
Still for that read-out and setting: to `COC[C@]12CC[C@@](C)(O)C[C@@H]1CC[C@H]1[C@@H]3CC[C@H](C(=O)Cn4nnc5ccc(F)c(F)c54)[C@@]3(C)CC[C@@H]12` [Compound 115] belongs 10 to 50 nM; to `COC[C@]12CC[C@@](C)(O)C[C@@H]1CC[C@H]1[C@@H]3CC[C@H](C(=O)Cn4cc(C#N)cn4)[C@@]3(C)CC[C@@H]12` [Compound 127], 10 to 50 nM; to `COC[C@]12CC[C@@](C)(O)C[C@@H]1CC[C@H]1[C@@H]3CC[C@H](C(=O)Cn4nc5ccc(F)c(F)c5n4)[C@@]3(C)CC[C@@H]12` [Compound 128], less than 10 nM.
Take `COC[C@]12CC[C@@](C)(O)C[C@@H]1CC[C@H]1[C@@H]3CC[C@H](C(=O)Cn4nnc5c(F)c(Cl)ccc54)[C@@]3(C)CC[C@@H]12` [Compound 138]: the IC50 was in the range of 100 to 500 nM.
On the same count and under the same terms, to `COC[C@]12CC[C@@](C)(O)C[C@@H]1CC[C@H]1[C@@H]3CC[C@H](C(=O)Cn4nnc5ccc(OC(F)(F)F)cc54)[C@@]3(C)CC[C@@H]12` [Compound 144] belongs 50 to 100 nM; to `COC[C@]12CC[C@@](C)(O)C[C@@H]1CC[C@H]1[C@@H]3CC[C@H](C(=O)Cn4nnc5cc(OC(F)(F)F)ccc54)[C@@]3(C)CC[C@@H]12` [Compound 146], 50 to 100 nM; to `COC[C@]12CC[C@@](C)(O)C[C@@H]1CC[C@H]1[C@@H]3CC[C@H](C(=O)Cn4cc5nccnc5n4)[C@@]3(C)CC[C@@H]12` [Compound 154], greater than 500 nM.
As to `COC[C@]12CC[C@@](C)(O)C[C@@H]1CC[C@H]1[C@@H]3CC[C@H](C(=O)Cn4ncc5nccnc54)[C@@]3(C)CC[C@@H]12` [Compound 155], the IC50 was 50 to 100 nM.
Regarding `COC[C@]12CC[C@@](C)(O)C[C@H]1CC[C@H]1[C@@H]3CC[C@H](C(=O)Cn4nnc5c(F)cccc54)[C@@]3(C)CC[C@@H]12` [Compound 157], the IC50 was 10 to 50 nM.
In the case of `COC[C@]12CC[C@](O)(C(F)(F)F)C[C@H]1CC[C@H]1[C@@H]3CC[C@H](C(=O)Cn4nnc5c(F)c(F)ccc54)[C@@]3(C)CC[C@@H]12` [Compound 161], the IC50 was in the range of 100 to 500 nM.
In the case of `COC[C@]12CC[C@](O)(C(F)(F)F)C[C@H]1CC[C@H]1[C@@H]3CC[C@H](C(=O)Cn4nc5ccc(F)c(F)c5n4)[C@@]3(C)CC[C@@H]12` [Compound 162], the half-inhibitory concentration (IC50) fell in the range of 100 to 500 nM.
Take `CCOC[C@]12CC[C@@](C)(O)C[C@@H]1CC[C@H]1[C@@H]3CC[C@H](C(=O)Cn4cc(C#N)cn4)[C@@]3(C)CC[C@@H]12` [Compound 171]: the IC50 lay within 10 to 50 nM.

The target in a further test is T1, GABAA receptors composed of the α1β2γ2 subunits (GABRA1/GABRB2/GABRG2) (Homo sapiens, UniProt P14867+P47870).
T1 construct: expressed in transfected cells; host or cells: Xenopus laevis oocytes, injected (ratio 1:1:1)
T1 sequence (P14867 28-456): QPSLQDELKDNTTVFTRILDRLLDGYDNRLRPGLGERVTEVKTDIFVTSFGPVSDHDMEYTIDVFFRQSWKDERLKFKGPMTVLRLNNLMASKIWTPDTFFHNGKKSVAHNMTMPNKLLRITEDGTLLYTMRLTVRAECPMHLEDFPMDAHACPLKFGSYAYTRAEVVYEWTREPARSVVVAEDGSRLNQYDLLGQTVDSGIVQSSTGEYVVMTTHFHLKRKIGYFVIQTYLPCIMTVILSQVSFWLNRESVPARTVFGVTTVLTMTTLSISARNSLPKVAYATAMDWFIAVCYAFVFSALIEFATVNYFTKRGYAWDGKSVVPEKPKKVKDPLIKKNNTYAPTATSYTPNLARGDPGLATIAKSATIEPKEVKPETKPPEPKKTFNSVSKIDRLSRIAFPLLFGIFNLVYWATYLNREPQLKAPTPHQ
T1 sequence (P47870 26-512): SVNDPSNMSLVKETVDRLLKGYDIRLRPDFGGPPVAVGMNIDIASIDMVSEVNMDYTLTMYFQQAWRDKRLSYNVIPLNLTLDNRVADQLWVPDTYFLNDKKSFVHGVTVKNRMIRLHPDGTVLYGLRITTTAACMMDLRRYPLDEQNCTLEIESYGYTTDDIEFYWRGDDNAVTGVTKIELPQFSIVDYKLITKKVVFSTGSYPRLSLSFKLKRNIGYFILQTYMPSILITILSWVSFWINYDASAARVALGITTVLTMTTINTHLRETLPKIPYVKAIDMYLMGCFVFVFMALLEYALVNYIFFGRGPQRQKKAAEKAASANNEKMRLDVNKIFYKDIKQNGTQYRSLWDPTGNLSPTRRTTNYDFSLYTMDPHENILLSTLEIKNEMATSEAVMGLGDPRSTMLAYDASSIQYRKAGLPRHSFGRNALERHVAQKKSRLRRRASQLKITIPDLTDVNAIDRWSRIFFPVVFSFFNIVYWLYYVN
T1 sequence (P18507 40-475 partner): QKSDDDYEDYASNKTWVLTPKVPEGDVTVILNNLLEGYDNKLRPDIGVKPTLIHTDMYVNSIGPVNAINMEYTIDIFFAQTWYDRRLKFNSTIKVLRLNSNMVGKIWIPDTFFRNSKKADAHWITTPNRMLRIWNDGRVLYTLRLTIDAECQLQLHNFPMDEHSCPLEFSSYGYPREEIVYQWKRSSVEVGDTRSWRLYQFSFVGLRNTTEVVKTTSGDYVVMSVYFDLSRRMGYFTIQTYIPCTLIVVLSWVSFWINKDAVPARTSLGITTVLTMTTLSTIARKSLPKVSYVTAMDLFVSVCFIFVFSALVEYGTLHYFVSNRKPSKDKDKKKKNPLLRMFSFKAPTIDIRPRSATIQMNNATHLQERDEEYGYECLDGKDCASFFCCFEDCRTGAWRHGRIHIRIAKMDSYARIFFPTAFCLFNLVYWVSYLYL
Put plainly: Two Electrode Voltage Clamp (TEVC), GABA receptor potentiation in Xenopus laevis oocytes, α1β2γ2. Format: cell-based. Particulars: 10 μM compound, 10 μM GABA, read-out: GABA (α1β2γ2) % efficacy at 10 μM. On the procedure:
The Two Electrode Voltage Clamp (TEVC) technique was used to investigate the effects of compounds at a concentration of 10 μM on GABAA receptors composed of the α1β2γ2 or α4β3δ subunits expressed in oocytes from the Xenopus laevis. GABA-evoked currents were recorded from oocytes that expressed the GABA receptors and the modulatory effects of the test items on these currents were investigated.
Ovaries were harvested from Xenopus laevis females that had been deeply anesthetized by cooling at 4° C. and immersion in Tricaine methanesulfonate (MS-222 at a concentration of 150 mg/L) in sodium bicarbonate (300 mg/L). Once anesthetized the animal was decapitated and pithed following the rules of animal rights from the Geneva canton. A small piece of ovary was isolated for immediate preparation while the remaining part was placed at 4° C. in a sterile Barth solution containing in mM NaCl 88, KCl 1, NaHCO3 2.4, HEPES 10, MgSO4·7H2O 0.82, Ca(NO3)2·4H2O 0.33, CaCl2·6H2O 0.41, at pH 7.4, and supplemented with 20 μg/ml of kanamycin, 100 unit/ml penicillin and 100 μg/ml streptomycin. All recordings were performed at 18° C. and cells were super-fused with medium containing in mM: NaCl 82.5, KCl 2.5, HEPES 5, CaCl2·2H2O, ·6H2O 1, pH 7.4.
Plasmids containing the RNAs of the human GABRA1/GABRB2/GABRG2 and GABRA4/GABRB3/GABRD genes were injected into oocytes using a proprietary automated injection device (Hogg el al., J. Neurosci. Methods, (2008) 169: 65-75). These genes encode for the α1β2γ2 and α4β3δ GABAA subunits respectively. Receptor expression was assessed using electrophysiology at least two days later. The ratio of RNA injection for α1β2γ2 was 1:1:1 and for α4β3δ was 5:1:5. Electrophysiological recordings were made using an automated process equipped with standard TEVC and data were captured and analyzed using a proprietary data acquisition and analysis software running under Matlab (Mathworks Inc.). The membrane potential of the oocytes was maintained at −80 mV throughout the experiments. To explore the effects of proprietary compounds, currents were evoked by applying 10 μM (α1β2γ2) or 3 μM (α4β3δ) GABA for 30 s. These concentrations approximated the EC50 concentration of GABA at each receptor subtype. Oocytes were then re-exposed to GABA again for 30 s. 15 s after beginning the GABA application, test article was co-applied at a concentration of 10 μM for 15 s. Potentiation of the peak current was assessed. Data was filtered at 10 Hz, captured at 100 Hz and analyzed using proprietary data acquisition and analysis software running under Matlab (Mathworks Inc.). For statistical analysis values were computed either with Excel (Microsoft) or Matlab (mathworks Inc.). To obtain mean measurements with standard deviations, all experiments were carried out using at least three cells.
Consider `COC[C@]12CC[C@@](C)(O)C[C@@H]1CC[C@H]1[C@@H]3CC[C@H](C(=O)Cn4nnc(C)n4)[C@@]3(C)CC[C@@H]12` [Compound 17], for which the Emax at 10 µM was in the range of 1000 to 1500%.
Take `COC[C@]12CC[C@@](C)(O)C[C@@H]1CC[C@H]1[C@@H]3CC[C@H](C(=O)Cn4cc(C)cn4)[C@@]3(C)CC[C@@H]12` [Compound 20]: the Emax at 10 µM is 500 to 1000%.
Turning to `COC[C@]12CC[C@@](C)(O)C[C@@H]1CC[C@H]1[C@@H]3CC[C@H](C(=O)Cn4cnc(C)c4)[C@@]3(C)CC[C@@H]12` [Compound 23], the Emax at 10 µM lay within 500 to 1000%.
